Results on six compounds are retold here after ChEMBL document CHEMBL1649349, “Discovery of a novel nitroimidazolyl-oxazolidinone hybrid with potent anti Gram-positive activity: Synthesis and antibacterial evaluation” (Eur J Med Chem, 2011).

In brackets after ≈: the same amount, converted by molar mass. Some results are limits rather than exact numbers.

One experiment relates to Bacillus subtilis. Kind of experiment: Antimicrobial activity against Bacillus subtilis PTCC 1023 by conventional agar-dilution method. It counts as functional.
In another experiment the test system is Klebsiella pneumoniae. As to the kind of experiment: Antimicrobial activity against Klebsiella pneumoniae ATCC 10031 by conventional agar-dilution method. It counts as functional.
For experiment [1], the system named is Staphylococcus aureus. Kind of experiment: Antimicrobial activity against methicillin-resistant Staphylococcus aureus 5 by conventional agar-dilution method. It counts as functional.
Experiment [2] concerns Staphylococcus saprophyticus. As to the kind of experiment: Antimicrobial activity against Staphylococcus saprophyticus ATCC 15305 by conventional agar-dilution method. It counts as functional.
Another experiment relates to Staphylococcus xylosus. As to the kind of experiment: Antimicrobial activity against Staphylococcus xylosus ATCC 2997 by conventional agar-dilution method. It counts as functional.
The test system of experiment [3] is Corynebacterium glutamicum. As to the kind of experiment: Antimicrobial activity against Corynebacterium glutamicum ATCC 13032 by conventional agar-dilution method. It counts as functional.
The nature of experiment [4]: Cytotoxicity against mouse NIH/3T3 cells by MTT colorimetric assay. Conditions: NIH3T3. It counts as cell-based. (In general: Tetrazolium dyes change colour on reduction, which living cells bring about.)
For the next experiment, the system named is Pseudomonas aeruginosa. As to the kind of experiment: Antimicrobial activity against Pseudomonas aeruginosa ATCC 9027 by conventional agar-dilution method. It counts as functional.
The subject of experiment [5] is Staphylococcus aureus. As to the kind of experiment: Antimicrobial activity against methicillin-resistant Staphylococcus aureus 17 by conventional agar-dilution method. It counts as functional.
For the next experiment, the system named is Micrococcus luteus. Kind of experiment: Antimicrobial activity against Micrococcus luteus ATCC 9341 by conventional agar-dilution method. It counts as functional.
Experiment [6] deals with Staphylococcus aureus. Kind of experiment: Antimicrobial activity against Staphylococcus aureus ATCC 6538p by conventional agar-dilution method. It counts as functional.
Experiment [7] has as its system Staphylococcus epidermidis. Kind of experiment: Antimicrobial activity against Staphylococcus epidermidis ATCC 12228 by conventional agar-dilution method. It counts as functional.
The next experiment concerns Mammaliicoccus lentus. As to the kind of experiment: Antimicrobial activity against Staphylococcus lentus ATCC 29070 by conventional agar-dilution method. It counts as functional.
For a further experiment, the system named is Staphylococcus warneri. Kind of experiment: Antimicrobial activity against Staphylococcus warneri ATCC 27836 by conventional agar-dilution method. It counts as functional.
Another experiment concerns Escherichia coli. As to the kind of experiment: Antimicrobial activity against Escherichia coli ATCC 8739 by conventional agar-dilution method. It counts as functional.
Experiment [8] relates to Staphylococcus aureus. As to the kind of experiment: Antimicrobial activity against methicillin-resistant Staphylococcus aureus 3 by conventional agar-dilution method. It counts as functional.

The term MIC denotes the lowest concentration found to suppress growth. Read a high MIC as a less susceptible organism. One may read the IC50 as the concentration that inhibits the measured activity by half. Low readings indicate greater potency in that assay, high ones weaker potency in that assay.

On to `CC(=O)NC[C@H]1CN(c2ccc(N3CCN(c4nnc(-c5ncc([N+](=O)[O-])n5C)s4)CC3)c(F)c2)C(=O)O1`, for which the MIC in the experiment on Bacillus subtilis amounted to 0.098 µg/mL (≈ 0.18 µM); against Klebsiella pneumoniae it was 0.781 µg/mL (≈ 1.43 µM); against Staphylococcus aureus [1], 0.195 µg/mL (≈ 0.357 µM); in experiment [2] it was 0.024 µg/mL (≈ 0.044 µM); in the experiment on Staphylococcus xylosus, 0.049 µg/mL (≈ 0.0898 µM); in experiment [3], 0.195 µg/mL (≈ 0.357 µM). In addition, the MIC is over 100 µg/mL in the experiment on Pseudomonas aeruginosa; 0.024 µg/mL (≈ 0.044 µM) in the experiment with Staphylococcus aureus [5]; 0.195 µg/mL (≈ 0.357 µM) with Micrococcus luteus; 0.098 µg/mL (≈ 0.18 µM) with Staphylococcus aureus [6]; 0.024 µg/mL (≈ 0.044 µM) in [7]; 0.098 µg/mL (≈ 0.18 µM) in the experiment on Mammaliicoccus lentus. For the same compound, the MIC against Staphylococcus warneri is 0.006 µg/mL (≈ 0.011 µM); with Escherichia coli, over 100 µg/mL; in the experiment on Staphylococcus aureus [8], 0.391 µg/mL (≈ 0.717 µM). Further, the IC50 in experiment [4] is over 200 µg/mL.

With `CC(=O)NC[C@H]1CN(c2ccc(N3CCN(c4nnc(-c5ccc([N+](=O)[O-])s5)s4)CC3)c(F)c2)C(=O)O1`, the minimal inhibitory concentration (MIC) in the experiment on Bacillus subtilis was found to be 0.781 µg/mL (≈ 1.43 µM); in the experiment with Klebsiella pneumoniae it was 100 µg/mL (≈ 183 µM); with Staphylococcus aureus [1], 6.25 µg/mL (≈ 11.4 µM); in [2], 0.195 µg/mL (≈ 0.356 µM); against Staphylococcus xylosus, 0.098 µg/mL (≈ 0.179 µM); in experiment [3], 6.25 µg/mL (≈ 11.4 µM). For the same compound, the minimal inhibitory concentration (MIC) was over 100 µg/mL with Pseudomonas aeruginosa; 0.098 µg/mL (≈ 0.179 µM) against Staphylococcus aureus [5]; 6.25 µg/mL (≈ 11.4 µM) in the experiment on Micrococcus luteus; 0.098 µg/mL (≈ 0.179 µM) against Staphylococcus aureus [6]; 0.024 µg/mL (≈ 0.0438 µM) in experiment [7]; 0.098 µg/mL (≈ 0.179 µM) in the experiment with Mammaliicoccus lentus. The MIC against Staphylococcus warneri is 0.049 µg/mL (≈ 0.0895 µM); against Escherichia coli it was over 100 µg/mL; in the experiment on Staphylococcus aureus [8] it was 0.195 µg/mL (≈ 0.356 µM). This compound came in with an IC50 in experiment [4] of 184 µg/mL (≈ 336 µM).

In the case of `CC(=O)NC[C@H]1CN(c2ccc(N3CCNCC3)c(F)c2)C(=O)O1`, the MIC came out at 12.5 µg/mL (≈ 37.2 µM) in the experiment on Bacillus subtilis; 25 µg/mL (≈ 74.3 µM) against Klebsiella pneumoniae; 12.5 µg/mL (≈ 37.2 µM) against Staphylococcus aureus [1]; 3.12 µg/mL (≈ 9.29 µM) in experiment [2]; 3.12 µg/mL (≈ 9.29 µM) against Staphylococcus xylosus; 1.56 µg/mL (≈ 4.65 µM) in [3]. In addition, the MIC was over 100 µg/mL with Pseudomonas aeruginosa; 25 µg/mL (≈ 74.3 µM) against Staphylococcus aureus [5]; 1.56 µg/mL (≈ 4.65 µM) against Micrococcus luteus; 12.5 µg/mL (≈ 37.2 µM) against Staphylococcus aureus [6]; 6.25 µg/mL (≈ 18.6 µM) in experiment [7]; 12.5 µg/mL (≈ 37.2 µM) against Mammaliicoccus lentus. Also, the minimum inhibitory concentration (MIC) against Staphylococcus warneri came out at 18 µg/mL (≈ 53.5 µM); with Escherichia coli it was 50 µg/mL (≈ 149 µM); against Staphylococcus aureus [8], 25 µg/mL (≈ 74.3 µM). The compound further showed an IC50 in [4] of over 200 µg/mL.

On to `O=C(O)c1cn(C2CC2)c2cc(N3CCNCC3)c(F)cc2c1=O` [CIPROFLOXACIN], for which the MIC against Bacillus subtilis is 0.195 µg/mL (≈ 0.589 µM); against Klebsiella pneumoniae, 0.003 µg/mL (≈ 0.00905 µM); against Staphylococcus aureus [1], 0.391 µg/mL (≈ 1.18 µM); in [2], 0.098 µg/mL (≈ 0.296 µM); with Staphylococcus xylosus, 0.391 µg/mL (≈ 1.18 µM); in experiment [3], 0.391 µg/mL (≈ 1.18 µM). For the same compound, the MIC turned out to be 0.0391 µg/mL (≈ 0.118 µM) with Pseudomonas aeruginosa; 0.391 µg/mL (≈ 1.18 µM) against Staphylococcus aureus [5]; 3.12 µg/mL (≈ 9.43 µM) against Micrococcus luteus; 0.195 µg/mL (≈ 0.589 µM) with Staphylococcus aureus [6]; 0.391 µg/mL (≈ 1.18 µM) in [7]; 0.781 µg/mL (≈ 2.36 µM) in the experiment on Mammaliicoccus lentus. Besides, the MIC in the experiment on Staphylococcus warneri amounted to 0.195 µg/mL (≈ 0.589 µM); against Staphylococcus aureus [8], 0.391 µg/mL (≈ 1.18 µM).

Turning to `CC(=O)NC[C@H]1CN(c2ccc(N3CCN(c4nnc(-c5ccc([N+](=O)[O-])o5)s4)CC3)c(F)c2)C(=O)O1`, the MIC in the experiment with Bacillus subtilis is 0.391 µg/mL (≈ 0.736 µM); in the experiment on Klebsiella pneumoniae, 50 µg/mL (≈ 94.1 µM); with Staphylococcus aureus [1], 0.195 µg/mL (≈ 0.367 µM); in [2], 0.024 µg/mL (≈ 0.0452 µM); against Staphylococcus xylosus, 0.024 µg/mL (≈ 0.0452 µM); in experiment [3], 0.195 µg/mL (≈ 0.367 µM). The minimum inhibitory concentration (MIC) is over 100 µg/mL in the experiment with Pseudomonas aeruginosa; 0.012 µg/mL (≈ 0.0226 µM) against Staphylococcus aureus [5]; 0.391 µg/mL (≈ 0.736 µM) against Micrococcus luteus; 0.012 µg/mL (≈ 0.0226 µM) with Staphylococcus aureus [6]; 0.006 µg/mL (≈ 0.0113 µM) in experiment [7]; 0.012 µg/mL (≈ 0.0226 µM) against Mammaliicoccus lentus. Besides, the MIC was 0.006 µg/mL (≈ 0.0113 µM) with Staphylococcus warneri, over 100 µg/mL in the experiment with Escherichia coli and 0.049 µg/mL (≈ 0.0922 µM) in the experiment on Staphylococcus aureus [8]. In experiment [4], this compound had a half-maximal inhibitory concentration (IC50) of 21.8 µg/mL (≈ 41 µM).

`CC(=O)NC[C@H]1CN(c2ccc(N3CCOCC3)c(F)c2)C(=O)O1` [LINEZOLID]: the MIC came out at 0.391 µg/mL (≈ 1.16 µM) against Bacillus subtilis; 6.25 µg/mL (≈ 18.5 µM) in the experiment with Klebsiella pneumoniae; 0.781 µg/mL (≈ 2.32 µM) in the experiment on Staphylococcus aureus [1]; 0.781 µg/mL (≈ 2.32 µM) in experiment [2]; 0.781 µg/mL (≈ 2.32 µM) in the experiment with Staphylococcus xylosus; 0.781 µg/mL (≈ 2.32 µM) in experiment [3]. For the same compound, the minimum inhibitory concentration (MIC) in the experiment on Pseudomonas aeruginosa was over 100 µg/mL; against Staphylococcus aureus [5] it was 0.781 µg/mL (≈ 2.32 µM); against Micrococcus luteus, 0.781 µg/mL (≈ 2.32 µM); in the experiment on Staphylococcus aureus [6], 0.781 µg/mL (≈ 2.32 µM); in [7] it was 0.781 µg/mL (≈ 2.32 µM); with Mammaliicoccus lentus, 1.56 µg/mL (≈ 4.63 µM). For the same compound, the minimum inhibitory concentration (MIC) against Staphylococcus warneri was 0.781 µg/mL (≈ 2.32 µM); against Escherichia coli, over 100 µg/mL; with Staphylococcus aureus [8], 0.781 µg/mL (≈ 2.32 µM).
